Experimental data taken from ChEMBL document CHEMBL1909046, “DrugMatrix in vitro pharmacology data”.

Key:
[1] = DRUGMATRIX: Imidazoline I2, Central radioligand binding (ligand: [3H] Idazoxan); format: cell membranes, Rattus norvegicus, Wistar, Cerebral cortex, Membrane; conditions: Not Active = under 50% inhibition at 10 µM
[2] = DRUGMATRIX: Glutamate, NMDA, Agonism radioligand binding (ligand: [3H] CGP-39653); format: cell membranes, Rattus norvegicus, Wistar, Cerebral cortex, Membrane; conditions: Not Active = under 50% inhibition at 10 µM
[3] = DRUGMATRIX: GABAA, Chloride Channel, TBOB radioligand binding (ligand: [3H] TBOB); format: cell membranes, Rattus norvegicus, Wistar, Cerebral cortex, Membrane; conditions: Not Active = under 50% inhibition at 10 µM
Substance-P receptor = Substance-P receptor (Homo sapiens, UniProt P25103); format: cell membranes, CHO, Membrane; conditions: cho; further: in other assays of this panel Not Active means under 50% inhibition at 10 µM
D(3) dopamine receptor = D(3) dopamine receptor (Homo sapiens, UniProt P35462); experiment: DRUGMATRIX: Dopamine D3 radioligand binding (ligand: [3H] Spiperone); format: cell membranes, CHO, Membrane; conditions: cho
[4] = molecular target: T1, C-X-C chemokine receptor type 2 (Homo sapiens, UniProt P25025); format: cell membranes, Membrane; conditions: cho-k1; further: in other assays of this panel Not Active means under 50% inhibition at 10 µM
T1 sequence (P25025 whole entry): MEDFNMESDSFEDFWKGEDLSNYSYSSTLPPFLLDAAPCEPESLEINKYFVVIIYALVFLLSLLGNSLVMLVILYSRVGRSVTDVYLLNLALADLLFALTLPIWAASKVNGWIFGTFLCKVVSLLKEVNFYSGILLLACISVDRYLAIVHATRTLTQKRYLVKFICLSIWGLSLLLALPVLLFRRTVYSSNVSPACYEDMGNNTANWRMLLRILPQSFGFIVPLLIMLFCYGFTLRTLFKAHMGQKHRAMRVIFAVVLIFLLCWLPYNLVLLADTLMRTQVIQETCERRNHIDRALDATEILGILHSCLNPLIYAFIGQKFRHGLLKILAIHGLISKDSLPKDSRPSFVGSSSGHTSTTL

[5] = DRUGMATRIX: Platelet-Derived Growth Factor (PDGF) radioligand binding (ligand: [125I] PDGF); format: cell-based; conditions: nih3t3; Not Active = under 50% inhibition at 10 µM
[6] = DRUGMATRIX: Phosphodiesterase PDE3 enzyme inhibition (substrate: [3H]cAMP + cAMP); format: tissue-based, Homo sapiens; conditions: platelet; Not Active = under 50% inhibition at 10 µM
Estrogen receptor = molecular target: T2, Estrogen receptor (Homo sapiens, UniProt P03372); conditions: sf9; further: in other assays of this panel Not Active means under 50% inhibition at 10 µM
T2 sequence (P03372 whole entry): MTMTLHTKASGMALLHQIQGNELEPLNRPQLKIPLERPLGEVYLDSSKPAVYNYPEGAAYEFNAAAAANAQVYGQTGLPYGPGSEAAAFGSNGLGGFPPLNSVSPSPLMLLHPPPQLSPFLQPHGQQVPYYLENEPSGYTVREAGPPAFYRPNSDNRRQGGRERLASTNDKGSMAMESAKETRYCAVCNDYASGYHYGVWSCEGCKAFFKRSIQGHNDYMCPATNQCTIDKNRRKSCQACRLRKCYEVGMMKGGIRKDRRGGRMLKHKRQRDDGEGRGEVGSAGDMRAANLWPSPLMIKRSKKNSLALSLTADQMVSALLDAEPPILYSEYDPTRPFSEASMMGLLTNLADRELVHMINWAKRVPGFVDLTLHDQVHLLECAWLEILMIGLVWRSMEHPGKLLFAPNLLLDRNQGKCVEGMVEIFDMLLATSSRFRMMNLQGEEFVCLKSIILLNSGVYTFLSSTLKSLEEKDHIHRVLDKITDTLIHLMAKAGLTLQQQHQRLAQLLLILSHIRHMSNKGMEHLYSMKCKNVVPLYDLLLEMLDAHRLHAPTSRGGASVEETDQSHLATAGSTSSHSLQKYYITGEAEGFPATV

[7] = DRUGMATRIX: Glutamate, NMDA, Phencyclidine radioligand binding (ligand: [3H] TCP); format: cell membranes, Rattus norvegicus, Wistar, Cerebral cortex, Membrane; conditions: Not Active = under 50% inhibition at 10 µM
[8] = molecular target: Aldo-keto reductase family 1 member B1 (Rattus norvegicus, UniProt P07943); format: tissue-based, Lens of camera-type eye;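 further: inhibition of aldose reductase enzyme activity, measured with DL-glyceraldehyde as the substrate; in other assays of this panel Not Active means under 50% inhibition at 10 µM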
Melanocortin receptor 4 = Melanocortin receptor 4 (Homo sapiens, UniProt P32245); format: cell membranes, Membrane; conditions: hek293; further: in other assays of this panel Not Active means under 50% inhibition at 10 µM
Adenosine receptor A1 = molecular target: T3, Adenosine receptor A1 (Homo sapiens, UniProt P30542); format: cell membranes, CHO, Membrane; conditions: cho
T3 sequence (P30542 whole entry): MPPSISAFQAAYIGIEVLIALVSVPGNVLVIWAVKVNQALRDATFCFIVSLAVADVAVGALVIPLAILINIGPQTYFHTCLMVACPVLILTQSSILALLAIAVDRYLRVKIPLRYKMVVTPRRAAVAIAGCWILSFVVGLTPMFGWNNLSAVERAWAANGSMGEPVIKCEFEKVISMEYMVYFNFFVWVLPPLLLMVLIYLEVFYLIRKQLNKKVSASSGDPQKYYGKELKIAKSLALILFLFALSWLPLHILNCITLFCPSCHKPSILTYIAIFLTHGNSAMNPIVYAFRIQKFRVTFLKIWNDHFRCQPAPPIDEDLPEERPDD

Cytochrome P450 3A4 = Cytochrome P450 3A4 (Homo sapiens, UniProt P08684); conditions: bti-tn-5b1-4; further: in other assays of this panel Not Active means under 50% inhibition at 10 µM
[9] = molecular target: T4, Neuropeptide Y receptor type 2 (Homo sapiens, UniProt P49146); format: cell membranes, Membrane; conditions: kan-ts; further: in other assays of this panel Not Active means under 50% inhibition at 10 µM
T4 sequence (P49146 whole entry): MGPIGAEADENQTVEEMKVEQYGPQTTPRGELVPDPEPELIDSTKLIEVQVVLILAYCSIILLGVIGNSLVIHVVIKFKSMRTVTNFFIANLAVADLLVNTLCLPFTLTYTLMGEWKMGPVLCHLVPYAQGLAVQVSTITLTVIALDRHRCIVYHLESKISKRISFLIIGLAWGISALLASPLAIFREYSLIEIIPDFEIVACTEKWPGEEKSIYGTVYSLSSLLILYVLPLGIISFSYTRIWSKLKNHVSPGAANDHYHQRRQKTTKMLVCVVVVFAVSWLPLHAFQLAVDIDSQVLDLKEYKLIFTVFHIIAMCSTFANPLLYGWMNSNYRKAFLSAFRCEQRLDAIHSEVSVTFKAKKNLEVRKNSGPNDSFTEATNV

[10] = molecular target: 5-hydroxytryptamine receptor 1B (Rattus norvegicus, UniProt P28564); format: cell membranes, Wistar, Cerebral cortex, Membrane; further: in other assays of this panel Not Active means under 50% inhibition at 10 µM
Histamine H2 receptor = Histamine H2 receptor (Homo sapiens, UniProt P25021); format: cell membranes, CHO-K1, Membrane; conditions: cho-k1; further: in other assays of this panel Not Active means under 50% inhibition at 10 µM
Chain of Histamine H2 receptor (P25021 whole entry): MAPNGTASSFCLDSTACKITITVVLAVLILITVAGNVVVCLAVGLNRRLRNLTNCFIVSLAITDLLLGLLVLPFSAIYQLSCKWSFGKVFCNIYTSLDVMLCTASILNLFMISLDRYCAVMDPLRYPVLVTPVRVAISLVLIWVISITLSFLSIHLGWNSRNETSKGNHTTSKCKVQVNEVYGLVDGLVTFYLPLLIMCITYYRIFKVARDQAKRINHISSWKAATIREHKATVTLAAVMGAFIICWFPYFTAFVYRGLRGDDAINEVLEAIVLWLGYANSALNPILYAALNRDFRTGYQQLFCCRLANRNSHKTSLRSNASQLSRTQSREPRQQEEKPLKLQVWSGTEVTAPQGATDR

Chain of D(3) dopamine receptor (P35462 whole entry): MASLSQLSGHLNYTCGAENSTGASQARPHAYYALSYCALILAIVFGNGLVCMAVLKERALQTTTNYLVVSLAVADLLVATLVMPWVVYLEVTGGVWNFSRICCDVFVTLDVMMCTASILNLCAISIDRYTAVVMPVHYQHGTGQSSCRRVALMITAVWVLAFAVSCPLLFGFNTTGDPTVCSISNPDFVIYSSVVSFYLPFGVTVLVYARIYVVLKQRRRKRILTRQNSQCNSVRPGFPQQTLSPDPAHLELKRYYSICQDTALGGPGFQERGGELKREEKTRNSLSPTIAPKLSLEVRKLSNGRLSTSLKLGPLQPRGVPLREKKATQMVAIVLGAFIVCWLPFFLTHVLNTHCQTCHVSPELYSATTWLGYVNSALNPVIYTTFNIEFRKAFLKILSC
Chain of Substance-P receptor (P25103 whole entry): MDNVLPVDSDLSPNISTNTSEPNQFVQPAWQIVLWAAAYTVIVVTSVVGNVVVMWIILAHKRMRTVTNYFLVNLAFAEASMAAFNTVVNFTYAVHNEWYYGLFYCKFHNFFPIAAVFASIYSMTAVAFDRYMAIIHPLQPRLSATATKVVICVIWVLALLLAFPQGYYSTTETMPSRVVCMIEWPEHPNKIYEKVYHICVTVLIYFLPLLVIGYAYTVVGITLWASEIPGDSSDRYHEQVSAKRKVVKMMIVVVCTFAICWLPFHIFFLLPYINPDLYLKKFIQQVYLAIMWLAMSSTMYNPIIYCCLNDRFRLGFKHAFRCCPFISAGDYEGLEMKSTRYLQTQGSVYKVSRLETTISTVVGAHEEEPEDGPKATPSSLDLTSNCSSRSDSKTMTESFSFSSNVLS
Chain of Cytochrome P450 3A4 (P08684 whole entry): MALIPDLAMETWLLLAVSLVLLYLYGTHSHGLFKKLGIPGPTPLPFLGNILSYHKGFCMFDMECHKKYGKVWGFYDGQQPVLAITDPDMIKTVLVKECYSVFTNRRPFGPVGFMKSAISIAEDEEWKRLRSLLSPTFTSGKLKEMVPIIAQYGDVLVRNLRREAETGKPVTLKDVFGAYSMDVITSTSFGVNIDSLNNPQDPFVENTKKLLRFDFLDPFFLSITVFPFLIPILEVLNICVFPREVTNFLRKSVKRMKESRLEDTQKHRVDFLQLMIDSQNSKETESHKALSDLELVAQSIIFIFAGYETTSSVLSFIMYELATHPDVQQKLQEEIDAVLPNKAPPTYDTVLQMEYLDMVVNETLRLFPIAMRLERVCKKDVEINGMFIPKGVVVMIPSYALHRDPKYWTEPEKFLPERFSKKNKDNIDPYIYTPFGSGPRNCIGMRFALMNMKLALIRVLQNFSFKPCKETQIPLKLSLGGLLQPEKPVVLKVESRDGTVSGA
Chain of Melanocortin receptor 4 (P32245 whole entry): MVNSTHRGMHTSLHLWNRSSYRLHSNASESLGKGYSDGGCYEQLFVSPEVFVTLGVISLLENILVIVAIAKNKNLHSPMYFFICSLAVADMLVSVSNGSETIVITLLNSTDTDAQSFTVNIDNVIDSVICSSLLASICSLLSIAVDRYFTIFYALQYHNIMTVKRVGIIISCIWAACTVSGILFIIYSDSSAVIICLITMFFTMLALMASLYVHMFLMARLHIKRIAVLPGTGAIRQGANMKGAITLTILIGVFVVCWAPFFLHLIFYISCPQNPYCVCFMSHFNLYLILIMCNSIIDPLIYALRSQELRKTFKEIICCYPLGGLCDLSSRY
Chain of 5-hydroxytryptamine receptor 1B (P28564 whole entry): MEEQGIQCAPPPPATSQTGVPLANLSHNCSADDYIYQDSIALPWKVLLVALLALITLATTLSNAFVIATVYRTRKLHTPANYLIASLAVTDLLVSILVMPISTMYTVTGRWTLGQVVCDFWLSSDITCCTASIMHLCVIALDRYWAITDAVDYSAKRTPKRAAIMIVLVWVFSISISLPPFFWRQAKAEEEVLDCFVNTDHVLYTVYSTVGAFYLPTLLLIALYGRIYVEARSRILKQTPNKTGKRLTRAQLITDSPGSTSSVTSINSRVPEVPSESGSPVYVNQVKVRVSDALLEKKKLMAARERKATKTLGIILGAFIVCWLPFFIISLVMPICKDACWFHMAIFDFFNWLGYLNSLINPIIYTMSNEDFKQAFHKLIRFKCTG

CCCc1cc(=O)[nH]c(=S)[nH]1 [PROPYLTHIOURACIL]
Not Active: IC50 [1] | Ki [1] | IC50 [2] | Ki [2] | IC50 [3] | Ki [3] | IC50 (Substance-P receptor) | IC50 (D(3) dopamine receptor) | IC50 [4] | IC50 [5] | Ki [5] | IC50 [6] | Ki [6] | IC50 (Estrogen receptor) | IC50 [7] | Ki [7] | IC50 [8] | IC50 (Melanocortin receptor 4) | IC50 (Adenosine receptor A1) | IC50 (Cytochrome P450 3A4) | Ki (Cytochrome P450 3A4) | IC50 [9] | IC50 [10] | IC50 (Histamine H2 receptor)

N#C[C@H](O[C@@H]1O[C@H](CO[C@@H]2O[C@H](CO)[C@@H](O)[C@H](O)[C@H]2O)[C@@H](O)[C@H](O)[C@H]1O)c1ccccc1 [AMYGDALIN]
Not Active: IC50 [1] | Ki [1] | IC50 [2] | Ki [2] | IC50 [3] | Ki [3] | IC50 (Substance-P receptor) | IC50 (D(3) dopamine receptor) | IC50 [4] | IC50 [5] | Ki [5] | IC50 [6] | Ki [6] | IC50 (Estrogen receptor) | IC50 [7] | Ki [7] | IC50 [8] | IC50 (Melanocortin receptor 4) | IC50 (Adenosine receptor A1) | IC50 (Cytochrome P450 3A4) | Ki (Cytochrome P450 3A4) | IC50 [9] | IC50 [10] | IC50 (Histamine H2 receptor)

CC=CC(=O)N(CC)c1ccccc1C
Not Active: IC50 [1] | Ki [1] | IC50 [2] | Ki [2] | IC50 [3] | Ki [3] | IC50 (Substance-P receptor) | IC50 (D(3) dopamine receptor) | IC50 [4] | IC50 [5] | Ki [5] | IC50 [6] | Ki [6] | IC50 (Estrogen receptor) | IC50 [7] | Ki [7] | IC50 [8] | IC50 (Melanocortin receptor 4) | IC50 (Adenosine receptor A1) | IC50 (Cytochrome P450 3A4) | Ki (Cytochrome P450 3A4) | IC50 [9] | IC50 [10] | IC50 (Histamine H2 receptor)

CC[C@@]1(O)C(=O)OCc2c1cc1n(c2=O)Cc2cc3ccccc3nc2-1 [CAMPTOTHECIN]
Not Active: IC50 [1] | Ki [1] | IC50 [2] | Ki [2] | IC50 [3] | Ki [3] | IC50 (Substance-P receptor) | IC50 (D(3) dopamine receptor) | IC50 [4] | IC50 [5] | Ki [5] | IC50 [6] | Ki [6] | IC50 (Estrogen receptor) | IC50 [7] | Ki [7] | IC50 [8] | IC50 (Melanocortin receptor 4) | IC50 (Adenosine receptor A1) | IC50 (Cytochrome P450 3A4) | Ki (Cytochrome P450 3A4) | IC50 [9] | IC50 [10] | IC50 (Histamine H2 receptor)

CC(=O)O[C@]1(C(C)=O)CC[C@H]2[C@@H]3C=C(Cl)C4=CC(=O)CC[C@]4(C)[C@H]3CC[C@@]21C [CHLORMADINONE ACETATE]
Not Active: IC50 [1] | Ki [1] | IC50 [2] | Ki [2] | IC50 [3] | Ki [3] | IC50 (Substance-P receptor) | IC50 (D(3) dopamine receptor) | IC50 [4] | IC50 [5] | Ki [5] | IC50 [6] | Ki [6] | IC50 (Estrogen receptor) | IC50 [7] | Ki [7] | IC50 [8] | IC50 (Melanocortin receptor 4) | IC50 (Adenosine receptor A1) | IC50 (Cytochrome P450 3A4) | Ki (Cytochrome P450 3A4) | IC50 [9] | IC50 [10] | IC50 (Histamine H2 receptor)

C[C@]12CCC(=O)C=C1CC[C@@H]1[C@@H]2C(=O)C[C@@]2(C)[C@H]1CC[C@]2(O)C(=O)CO [CORTISONE]
Not Active: IC50 [1] | Ki [1] | IC50 [2] | Ki [2] | IC50 [3] | Ki [3] | IC50 (Substance-P receptor) | IC50 (D(3) dopamine receptor) | IC50 [4] | IC50 [5] | Ki [5] | IC50 [6] | Ki [6] | IC50 (Estrogen receptor) | IC50 [7] | Ki [7] | IC50 [8] | IC50 (Melanocortin receptor 4) | IC50 (Adenosine receptor A1) | IC50 (Cytochrome P450 3A4) | Ki (Cytochrome P450 3A4) | IC50 [9] | IC50 [10] | IC50 (Histamine H2 receptor)

Brc1ccccc1 [BROMOBENZENE]
Not Active: IC50 [1] | Ki [1] | IC50 [2] | Ki [2] | IC50 [3] | Ki [3] | IC50 (Substance-P receptor) | IC50 (D(3) dopamine receptor) | IC50 [4] | IC50 [5] | Ki [5] | IC50 [6] | Ki [6] | IC50 (Estrogen receptor) | IC50 [7] | Ki [7] | IC50 [8] | IC50 (Melanocortin receptor 4) | IC50 (Adenosine receptor A1) | IC50 (Cytochrome P450 3A4) | Ki (Cytochrome P450 3A4) | IC50 [9] | IC50 [10] | IC50 (Histamine H2 receptor)
